Measurements as given in patent US20080280837A1, “Biologically Active Compounds with Anti-Angiogenic Properties” (priority 2004, published 2008).

Target: T1, Human SST5 somatostatin receptor (SSTR5) (Homo sapiens, UniProt P35346)
T1 construct: expressed in transfected cells; host or cells: HEK-293 EBNA
Assay: Filter plate assay for SST5 receptor, displacement of [125I]SST-14
Assay type: binding
How it was run: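 HEK-293 EBNA membranes expressing human SST5 (5.5 μg) incubated 60 min at 25 °C with 4 nM [125I]SST-14 and compound in pH 7.5 Tris/EGTA/MgCl2/sucrose buffer. Bound radioactivity collected on PEI-coated glass fiber filters and counted; triplicate 1:5 dilution series from 125 μM, non-specific binding with excess cold ligand.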

T1 sequence (P35346 whole entry): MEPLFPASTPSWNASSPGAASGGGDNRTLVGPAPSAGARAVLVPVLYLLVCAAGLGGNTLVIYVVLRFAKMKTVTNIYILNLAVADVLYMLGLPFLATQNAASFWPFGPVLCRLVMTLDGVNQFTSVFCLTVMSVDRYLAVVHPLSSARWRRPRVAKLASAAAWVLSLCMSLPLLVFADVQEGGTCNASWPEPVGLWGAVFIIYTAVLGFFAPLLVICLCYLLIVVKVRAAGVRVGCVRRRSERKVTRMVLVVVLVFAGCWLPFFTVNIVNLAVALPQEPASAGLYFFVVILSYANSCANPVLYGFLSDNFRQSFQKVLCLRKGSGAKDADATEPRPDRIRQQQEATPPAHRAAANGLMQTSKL

SSTR5 Inhib 0.5 uM % (inhibition of binding of SST-14 to SSTR5) [%]	SSTR5 Inhib 10 uM % (inhibition of binding of SST-14 to SSTR5) [%]	SMILES
48	89	CO[C@H]1[C@H](O)[C@@H](COCc2ccc(-c3ccccc3)cc2)OC(OCc2ccc(Cl)cc2)[C@@H]1NC(=O)CCCNC(=N)N (stereo partly drawn) [Compound 67]
47	71	COC1C(O)C(COCc2ccc(-c3ccccc3)cc2)OC(OCc2ccc(Cl)cc2)C1NC(=O)CNC(=N)N (stereo not drawn) [Compound 177]
41	85	CSC1O[C@H](COCc2ccc3ccccc3c2)[C@@H](O)[C@@H](OCc2ccc(-c3ccccc3)cc2)[C@H]1NC(=O)CN (stereo partly drawn) [Compound 97]
58	91	COC[C@H]1OC(OCc2ccccc2)[C@H](NC(=O)CCNC(=N)N)[C@H](OCc2ccc3ccccc3c2)[C@@H]1O (stereo partly drawn) [Compound 53]
44	78	CSC1O[C@H](COCc2ccc(Cl)cc2)[C@@H](O)[C@@H](OCc2ccccc2)[C@H]1NC(=O)CCNC(=N)N (stereo partly drawn) [Compound 142]
68	95	COC[C@H]1OC(OCc2ccc(Cl)cc2)[C@H](NC(=O)CCCN)[C@@H](OCc2ccc(Cl)cc2)[C@@H]1O (stereo partly drawn) [Compound 33]
52	80	CSC1O[C@H](COCc2ccc3ccccc3c2)[C@@H](O)[C@@H](OCc2ccc3ccccc3c2)[C@H]1NC(=O)CNC(=N)N (stereo partly drawn) [Compound 131]
54	83	COC[C@H]1OC(OCc2ccc(-c3ccccc3)cc2)[C@H](NC(=O)CCCNC(=N)N)[C@@H](OCc2ccc3ccccc3c2)[C@@H]1O (stereo partly drawn) [Compound 107]
68	93	COC[C@H]1OC(OCc2ccc3ccccc3c2)[C@H](NC(=O)CCCN)[C@@H](OCc2ccc(Cl)cc2)[C@@H]1O (stereo partly drawn) [Compound 47]
43	84	COC[C@H]1OC(OCc2ccc(Cl)cc2)[C@H](NC(=O)CCNC(=N)N)[C@H](OCc2ccc(-c3ccccc3)cc2)[C@@H]1O (stereo partly drawn) [Compound 99]
24	80	COC[C@H]1OC(OCc2ccc3ccccc3c2)[C@H](NC(=O)CNC(=N)N)[C@H](OCc2ccc(Cl)cc2)[C@@H]1O (stereo partly drawn) [Compound 133]
35	78	CO[C@H]1[C@H](O)[C@@H](COCc2ccc(Cl)cc2)OC(OCc2ccc3ccccc3c2)[C@@H]1NC(=O)CCCN (stereo partly drawn) [Compound 143]
47	82	CSC1O[C@H](COCc2ccc3ccccc3c2)[C@@H](O)[C@@H](OCc2ccc3ccccc3c2)[C@H]1NC(=O)CCNC(=N)N (stereo partly drawn) [Compound 114]
60	87	COC1C(O)C(COCc2ccc3ccccc3c2)OC(OCc2ccc3ccccc3c2)C1NC(=O)CCCN (stereo not drawn) [Compound 81]
37	81	COC[C@H]1OC(OCc2ccccc2)[C@H](NC(=O)CNC(=N)N)[C@H](OCc2ccc(-c3ccccc3)cc2)[C@@H]1O (stereo partly drawn) [Compound 119]
51	88	COC[C@H]1OC(OCc2ccccc2)[C@H](NC(=O)CCCN)[C@H](OCc2ccc3ccccc3c2)[C@@H]1O (stereo partly drawn) [Compound 76]
84	98	COC[C@H]1OC(OCc2ccc3ccccc3c2)[C@H](NC(=O)CCCNC(=N)N)[C@H](OCc2ccc(Cl)cc2)[C@@H]1O (stereo partly drawn) [Compound 17]
80	95	COC[C@H]1OC(OCc2ccccc2)[C@H](NC(=O)CCCN)[C@@H](OCc2ccc3ccccc3c2)[C@@H]1O (stereo partly drawn) [Compound 32]
39	80	COC[C@H]1OC(OCCc2ccccc2)[C@H](NC(=O)CCCNC(=N)N)[C@@H](OCc2ccc(-c3ccccc3)cc2)[C@@H]1O (stereo partly drawn) [Compound 132]
59	84	COC[C@H]1OC(OCc2ccccc2)[C@H](NC(=O)CCCNC(=N)N)[C@H](OCc2ccc3ccccc3c2)[C@@H]1O (stereo partly drawn) [Compound 100]
58	87	COC[C@H]1OC(OCc2ccc3ccccc3c2)[C@H](NC(=O)CCNC(=N)N)[C@@H](OCc2ccc(-c3ccccc3)cc2)[C@@H]1O (stereo partly drawn) [Compound 86]
40	77	COC[C@H]1OC(OCCc2ccccc2)[C@H](NC(=O)CCCN)[C@@H](OCc2cccc(O)c2)[C@@H]1O (stereo partly drawn) [Compound 147]
49	89	COC[C@H]1OC(OCc2ccc(Cl)cc2)[C@H](NC(=O)CCNC(=N)N)[C@H](OCc2ccc(Cl)cc2)[C@@H]1O (stereo partly drawn) [Compound 71]
64	89	COC[C@H]1OC(OCc2ccc(-c3ccccc3)cc2)[C@H](NC(=O)CCCN)[C@@H](OCc2ccc(Cl)cc2)[C@@H]1O (stereo partly drawn) [Compound 74]
66	92	COC[C@H]1OC(OCc2ccc(Cl)cc2)[C@H](NC(=O)CCCN)[C@@H](OCc2ccc3ccccc3c2)[C@@H]1O (stereo partly drawn) [Compound 48]
39	73	COC[C@H]1OC(OCc2ccc(Cl)cc2)[C@H](NC(=O)CCCN)[C@@H](OCc2ccccc2)[C@@H]1O (stereo partly drawn) [Compound 164]
64	91	COC[C@H]1OC(OCc2ccc3ccccc3c2)[C@H](NC(=O)CCNC(=N)N)[C@H](OCc2ccc3ccccc3c2)[C@@H]1O (stereo partly drawn) [Compound 57]
31	71	COC[C@H]1OC(OCc2ccc3ccccc3c2)[C@H](NC(=O)CNC(=N)N)[C@H](OCc2ccc3ccccc3c2)[C@@H]1O (stereo partly drawn) [Compound 174]
55	84	COC[C@H]1OC(OCCc2ccccc2)[C@H](NC(=O)CCCNC(=N)N)[C@@H](OCc2ccc(Cl)cc2)[C@@H]1O (stereo partly drawn) [Compound 98]
26	79	COC1C(O)C(COCc2ccc(-c3ccccc3)cc2)OC(OCc2ccc(-c3ccccc3)cc2)C1NC(=O)CCNC(=N)N (stereo not drawn) [Compound 136]
